Molecular target: Secreted effector protein (Yersinia pestis, UniProt O68720)
Assay: Inhibition of Yersinia pestis YopH after 15 mins by pNPP hydrolysis assay

Secreted effector protein, sequence (O68720 whole entry): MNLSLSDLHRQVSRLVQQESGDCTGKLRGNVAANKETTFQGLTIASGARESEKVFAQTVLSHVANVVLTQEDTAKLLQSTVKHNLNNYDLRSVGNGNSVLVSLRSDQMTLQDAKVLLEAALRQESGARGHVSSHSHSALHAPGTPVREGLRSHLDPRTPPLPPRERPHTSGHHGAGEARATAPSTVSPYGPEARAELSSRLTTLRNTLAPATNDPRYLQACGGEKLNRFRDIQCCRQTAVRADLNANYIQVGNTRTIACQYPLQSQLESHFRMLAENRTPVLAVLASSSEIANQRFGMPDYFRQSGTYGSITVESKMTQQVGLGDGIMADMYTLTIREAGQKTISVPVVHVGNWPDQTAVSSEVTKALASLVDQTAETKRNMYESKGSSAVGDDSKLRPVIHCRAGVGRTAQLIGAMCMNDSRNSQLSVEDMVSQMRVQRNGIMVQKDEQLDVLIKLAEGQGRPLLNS

Structure (SMILES): O=C(O)c1cc(/C=N/OCCCCCCCCCCO/N=C/c2ccc(OCc3ccccc3)cc2)ccc1O
- IC50: 2.4 µM
